This is an account of results in patent US12364733B1, “Method for treating septic shock” (Inotrem, priority 2018, dated 2025).

For the experiment, the system named is circulating levels of endothelial injury markers, inflammatory markers and sTREM-1. The experiment is described as follows: Phase IIa clinical trial with nangibotide: pharmacodynamic markers. The experiment is classed as in vivo, human. As for the experimental part:
The quantitative determination of sTREM-1 was carried out using the method described in Example 2.
Adverse events (AEs) were coded using the MedDRA dictionary version 18.1. Treatment-emergent adverse events (TEAEs) were summarized and listed. Analysis was performed in 49 septic shock patients. The demographic and baseline characteristics were summarized in a descriptive fashion within each population: categorical variables were summarized by contingency tables (frequencies and percentages). sTREM-1 levels at day 1 were also described (mean, standard deviation, standard error, median, quartiles and range, minimum and maximum values). Mortality rates were reported by frequency and percentage. For continuous endpoints, i.e., the sequential organ failure assessment (SOFA), missing data were imputed using LOCF (Last Observation Carry-Forward). For time-to-event analyses, i.e., duration of invasive mechanical ventilation (IMV), duration of continuous renal replacement therapy (CRRT), survival, censored data techniques were utilized. In addition, a sensitivity analysis of time to event data (except survival) was performed using censoring at maximum limit for the corresponding observation period (i.e., either day 28 or day 90). […] The following comparisons were made: each nangibotide dose arm to placebo, all nangibotide doses combined versus placebo, and dose-response using an ordinal trend test. Exploratory composite endpoint: incidence (number and proportion) of patients alive at day 28 and free of vasopressor, free of IMV and free of CRRT were summarized by treatment and compared between treatments with a Fisher's exact test. For pharmacodynamic markers, log transformed data were represented as percentage change from baseline at day 5 or End of Infusion (EOI) if end of infusion was stopped before day 5. […] “All nangibotide” refers to analyses obtained by pooling data from 0.3, 1 and 3 mg/kg/h nangibotide-treated groups.

As to “nangibotide (LQEEDAGEYGCM; TLT-1 peptide)”, for the setting “G2 subgroup (baseline sTREM-1 above the median 433 pg/mL) vs whole population and G1”, the “Ang-2 level, change from baseline” value is on record as “trend toward a more pronounced decrease”. Moreover, the “IL-6 level, change from baseline” value (G2 subgroup vs whole population and G1) was “the same trend was observed”. Moreover, the “circulating levels of endothelial injury markers (Ang-2, VCAM-1, VGEFR-1 and E-selectin), inflammatory markers (IL-8, IL-10, MCP-1, TNF-α and IL-10) and sTREM-1” value (during the treatment, nangibotide-treated patients) is “trend towards a decrease”. The “sTREM-1 kinetics over time” value (subgroup of patients with high baseline sTREM-1 values) was “trend towards a decrease in sTREM-1” and the “sTREM-1 kinetics over time” value (whole population, day 5/EOI from baseline) is “no apparent changes over time”. Moreover, the “Ang-2 level, treatment effect” value (whole population) is recorded as “no apparent treatment effect”.
